Experimental data from paper PMC6736360, “P-Glycoprotein–Mediated Efflux Reduces the In Vivo Efficacy of a Therapeutic Targeting the Gastrointestinal Parasite Cryptosporidium” (The Journal of Infectious Diseases, 2019).
Where two headings read alike, the source gives them in different places. Blank lines part the entries; values can stand above or below the molecule they belong to.

Legend:
C. parvum [1] = experiment: Hollow fiber in vitro Cryptosporidium culture with polarized HCT-8 cells; assay type: cell-based, Cryptosporidium parvum
Procedure: C. parvum was cultured using a hollow fiber bioreactor modified for evaluation of potential chemotherapeutic compounds [[21–23]]. Briefly, the system used a 20-kD MWCO polysulfone fiber cartridge (FiberCell Systems, Frederick, MD). HCT-8 cells were grown on the outer surface of the fibers (extracapillary space), and reservoirs were used to provide nutrients to the cells. When the glucose concentration decreased to at least 2 g/L, the extracapillary space was inoculated with 10^6C. parvum (Iowa isolate, Bunch Grass Farms, Deary, ID). […] Compound concentration was reduced over time by the flow of medium through the extracapillary and intracapillary spaces. Samples were removed from the extracapillary space once per day for evaluation of parasite numbers.
C. parvum growth was determined by analysis of the amount of C. parvum 18S-rRNA present and compared to the HCT-8 18S-rRNA as previously described^3. Briefly this was performed by centrifugation at 14,000 x g for 5 min of 0.5 mL samples collected from the extracapillary space (ECS). The pellet was resuspended in 100 µL of iScript buffer and subject to 6-freeze/thaw cycles comprising 1 min in liquid nitrogen followed by 1.5 min at 70 °C. The lysate was collected by centrifugation at 16,162 x g for 5 min, and the RNA purified according to the manufacturer’s instructions (iScriptTM, RT-qPCR sample preparation kit, Bio-Rad Laboratories). C. parvum was enumerated by quantitating the Cp18S-rRNA using the following specific forward and reverse primers - Cp18S-995F: 5’-[…]-3’ and Cp18S-1206R: 5’-[…]-3’ and compared to the human Hs18S-rRNA using the following primer sets - Hs18S-F1373: 5’-[…]-3’ and Hs18S-R1561: 5’-[…]-3’. The amount of 18S-rRNA was determined using 5 ng samples by RT-qPCR as described the manufacturer instructions using a Luna Universal One-Step® RT-qPCR kit (New England Biologics) and a Quant Studio 6 Flex 44 instrument. The cell number is calculated from the CT means using a set of standards prepared from 10^4, 10^5, and 10^6 C. parvum oocysts and compared to 10^4, 10^5, and 10^6 HCT-8 cells.

Cryptosporidium parvum = experiment: C. parvum growth inhibition, nonpolarized HCT-8 coculture assay; assay type: cell-based
Source text: Information regarding C. parvum growth inhibition by BKIs, the hollow fiber model, liquid chromatography–tandem mass spectrometry (LC-MS/MS) methods, and the interferon γ (IFN-γ) knockout (KO) mouse model of C. parvum infection has been described in detail previously [[15], [20–23]]. Information on BKI permeability, LC-MS/MS quantification of elacridar, and quantification of Cryptosporidium by polymerase chain reaction analysis is described in the Supplementary Materials. Unless noted otherwise, statistical significance was determined with an unpaired Student t test, using a significance level of 0.05.
To evaluate the potential impact of P-gp efflux on BKI1318 in vitro efficacy, in vitro assays with polarized and nonpolarized HCT-8 cells were evaluated. The nonpolarized HCT-8 coculture assay to screen anti-Cryptosporidium drug candidates has been previously reported by us in detail. […] Based on the reported elacridar half maximal inhibitor concentration for the inhibition of P-gp, the P-gp activity was predicted to be reduced with both elacridar concentrations. […] Elacridar alone had no effect on C. parvum levels.

C. parvum [2] = experiment: IFN-γ KO mouse model of Cryptosporidium infection; assay type: in vivo, mice; conditions: IFN-γ KO mice
Procedure: Efficacy in female IFN-γ KO mice (B6.129S7-Ifngtm1Ts/J; Jackson Laboratories) aged 8–10 weeks was evaluated as previously described. Beginning on day 6 after infection, mice were dosed with 30 mg/kg BKI1318 suspended in 0.2 mL of vehicle, 15 mg/kg elacridar in 0.1 mL of vehicle followed 15 minutes later by 30 mg/kg BKI1318 in 0.1 mL of vehicle, or 0.2 mL of vehicle only once daily for 5 days. Fecal specimens were collected daily from each group and weighed. Each fecal sample was checked for luminescence on the day of collection, and the number of relative light units was determined and normalized to fecal sample weights.

[3] = Mouse gastrointestinal tissue pharmacokinetics; assay type: in vivo, mice; conditions: mouse, oral; for AUC(0-t): read-out: AUC0-12; for Cmax: read-out: Observed Cmax; for Tmax: read-out: Tmax
Procedure: At multiple time points following BKI1318 administration, mice were euthanized, and the GI tract was separated into segments corresponding to the duodenum, jejunum, ileum, and cecum/colon. […] At 0.5, 1, 2, 4, 8, and 12 hours, three mice in each group were sacrificed by cervical dislocation, and the duodenum, jejunum, ileum, and cecum/ascending colon were immediately collected. Each section of the GI tract was flushed with Dulbecco's phosphate-buffered saline, weighed, and placed in storage at -80°C. On the day of homogenization, 0.9% NaCl was added to each sample to achieve 200 mg/mL tissue concentration. Samples were homogenized using a handheld motorized homogenizer (Fisher Scientific, Waltham, MA) on ice and stored at -20°C until extraction and analysis. To report tissue concentrations, 1 gram of tissue was estimated to be 1 mL of volume.

P-gp = biological target: T1, P-gp (Homo sapiens, UniProt P08183); experiment: Caco-2 P-gp efflux assay +/- valspodar; assay type: in vitro ADME; conditions: Caco-2
T1 construct: endogenous in cells; host or cells: Caco-2 cells (clone C2BBe1, ATCC); assay run by Absorption Systems LP
Source text: Given the well-known role of P-gp in the efflux of many diverse drugs, the adenosine triphosphate–binding cassette (ABC) transporter was specifically chosen for initial studies, to identify the transporter responsible for BKI1318’s relatively low Papp. A Caco-2 system with overexpression of P-gp was used to verify the role of P-gp in BKI1318 transport (Supplementary Table 2). […] It should be noted that this experiment characterized the importance of P-gp with a single concentration of BKI1318. The kinetics of BKI1318 transport mediated by P-gp are still unknown, and it is not clear how the fraction of absorption mediated by P-gp transport will change with different concentrations of BKI1318.
(§1) To ensure no damage was inflicted to the cell monolayers during the flux period, lucifer yellow flux was also measured post-experimentally for each monolayer. To determine whether BKIs 1294, 1369, and 1318 were substrates of P-gp in vitro, P-gp efflux was characterized using the Caco-2 permeability assay protocol with a few modifications. The dosing solution concentration was 5 μM of BKI in the assay buffer +/- 1 μM valspodar. Cells were first pre-incubated for 30 minutes with HBSS containing +/- 1 μM valspodar. Cell monolayers were dosed on the apical side (A?B) or basolateral side (B?A), and incubated at 37°C with 5% CO2 in a humidified incubator. Samples were taken from the donor and receiver chambers at 120 minutes. Each determination was performed in duplicate.

Cryptosporidium = test system: Cryptosporidium; set-up: method as in PMID 28329187; conditions: cited from earlier work
[4] = In vitro solubility at pH 2 and 6.5; assay type: physicochemical; conditions: pH 2, represents stomach; read-out: Solubility (pH 2)
Procedure: Figure 1. Structures, in vitro efficacy, and physicochemical properties of bumped kinase inhibitors (BKIs). […] Solubilities for each BKI were measured at pH 2 and 6.5, to represent the stomach and small intestinal environments, respectively. The human effective permeability (Peff) was predicted as described in Materials and Methods.

[5] = Caco-2 trans-well apparent permeability assay; assay type: in vitro ADME; conditions: human, pH 7.4
Procedure: To initially characterize the permeability of BKIs 1294, 1369, and 1318, the software MedChem Designer (Simulations +, Lancaster, CA) was used to predict the Peff. The in vitro apparent permeability (Papp) was carried out by Absorption Systems LP (Exton, PA) with a Caco-2 trans-well assay. Caco-2 cells (clone C2BBe1) were obtained from American Type Culture Collection (Manassas, VA) were grown to confluence on collagen-coated, microporous membranes in 12-well assay plates. The permeability assay buffer was Hanks’ balanced salt solution (HBSS) containing 10 mM HEPES and 15 mM glucose at a pH of 7.4. The buffer in the receiver chamber also contained 1% bovine serum albumin. The dosing solution concentration was 5 µM BKI in assay buffer, and the cell monolayers were dosed on the apical side (A?B) or basolateral side (B?A) and incubated at 37°C with 5% CO2 in a humidified incubator. After 120 minutes, samples were taken from the donor and receiver chambers in duplicate. The Papp was calculated with equation (1) and the percent recovery with equation (2).
Papp = (dCr/dt) × Vr/(A × CA) (1)
Percent Recovery = 100 × ((Vr × Cr^final) + (Vd × Cd^final))/(Vd × […]) (2)
where dCr/dt is the slope of the cumulative concentration in the receiver compartment versus time in µM s^-1; Vr is the volume of the receiver compartment in cm^3; Vd is the volume of the donor compartment in cm^3; A is the area of the insert (1.13 cm^2 for 12-well); CA is the average of the nominal dosing concentration and the measured 120 minute donor concentration in µM; CN is the nominal concentration of the dosing solution in µM; Cr^final is the cumulative receiver concentration in µM at the end of the incubation period; Cd^final is the concentration of the donor in µM at the end of the incubation period.
as §1

C. parvum [6] = test system: C. parvum; set-up: method as in PMID 28329187; conditions: previously published study; cited from earlier work
[7] = cecum/colon, elacridar in Cecum/Colon
[8] = duodenum, elacridar in Duodenum

T1 sequence (P08183 whole entry): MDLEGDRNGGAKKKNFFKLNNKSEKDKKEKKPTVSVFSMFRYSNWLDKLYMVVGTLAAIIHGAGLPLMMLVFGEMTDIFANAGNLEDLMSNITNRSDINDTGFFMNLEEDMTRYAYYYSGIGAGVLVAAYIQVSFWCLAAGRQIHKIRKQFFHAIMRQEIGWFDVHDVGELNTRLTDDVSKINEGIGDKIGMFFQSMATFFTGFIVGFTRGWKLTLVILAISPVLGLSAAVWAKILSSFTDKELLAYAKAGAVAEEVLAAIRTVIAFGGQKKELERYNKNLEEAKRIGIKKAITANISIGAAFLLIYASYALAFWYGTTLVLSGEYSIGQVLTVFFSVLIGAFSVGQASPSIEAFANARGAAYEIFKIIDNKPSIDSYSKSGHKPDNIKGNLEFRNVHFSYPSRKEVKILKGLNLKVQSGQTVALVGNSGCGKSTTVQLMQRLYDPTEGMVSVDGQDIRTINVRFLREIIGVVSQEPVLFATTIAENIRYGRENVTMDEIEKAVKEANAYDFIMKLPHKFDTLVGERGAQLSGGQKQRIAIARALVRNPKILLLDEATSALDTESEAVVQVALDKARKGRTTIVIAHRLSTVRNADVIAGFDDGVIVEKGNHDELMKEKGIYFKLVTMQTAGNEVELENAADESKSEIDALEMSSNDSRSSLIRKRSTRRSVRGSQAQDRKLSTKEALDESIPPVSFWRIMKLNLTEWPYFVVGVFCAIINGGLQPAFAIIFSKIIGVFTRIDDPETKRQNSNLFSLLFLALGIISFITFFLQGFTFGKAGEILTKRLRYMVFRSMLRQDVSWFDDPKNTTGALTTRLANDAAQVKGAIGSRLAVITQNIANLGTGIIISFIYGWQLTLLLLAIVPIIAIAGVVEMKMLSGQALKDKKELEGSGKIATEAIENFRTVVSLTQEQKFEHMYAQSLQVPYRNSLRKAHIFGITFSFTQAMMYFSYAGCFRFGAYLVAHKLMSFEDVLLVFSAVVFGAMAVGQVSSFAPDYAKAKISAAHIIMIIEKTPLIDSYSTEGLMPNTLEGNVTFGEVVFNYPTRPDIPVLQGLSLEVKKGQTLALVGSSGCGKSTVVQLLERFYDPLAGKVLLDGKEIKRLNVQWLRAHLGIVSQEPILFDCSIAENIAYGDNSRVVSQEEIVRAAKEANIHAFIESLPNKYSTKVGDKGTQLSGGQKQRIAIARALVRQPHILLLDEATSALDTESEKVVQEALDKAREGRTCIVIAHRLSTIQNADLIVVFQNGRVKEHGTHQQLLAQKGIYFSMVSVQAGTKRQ

AUC(0-t) [3, 7]: 12.6 ± 8.5 µM·h
Cmax [3, 7]: 3.3 ± 3.1 µM
Tmax [3, 7]: 6 h
AUC(0-t) [3, 8]: 118 ± 4.9 µM·h
Cmax [3, 8]: 61.2 µM
Tmax [3, 8]: 0.6 h
AUC(0-t) ([3]; ileum, elacridar in Ileum): 170 ± 45.7 µM·h
Cmax ([3]; ileum, elacridar in Ileum): 35.2 µM
Tmax ([3]; ileum, elacridar in Ileum): 1.7 h
AUC(0-t) ([3]; jejunum, elacridar in Jejunum): 104 ± 21.4 µM·h
Cmax ([3]; jejunum, elacridar in Jejunum): 32.6 µM
Tmax ([3]; jejunum, elacridar in Jejunum): 0.6 h
Compound: COc1cc2c(cc1OC)CN(CCc1ccc(NC(=O)c3cccc4c(=O)c5cccc(OC)c5[nH]c34)cc1)CC2 [elacridar, reference compound]
Effect on C. parvum levels/growth (C. parvum [1]; hollow fiber model, compound alone, 80 µM once daily): no effect
Effect on C. parvum levels (Cryptosporidium parvum; nonpolarized HCT-8 cells, compound alone): no effect
Effect on Cryptosporidium infection, administered alone (C. parvum [2]): no effect

P-gp Substrate Classification (P-gp): Positive
Compound: C[C@H]1O[C@@H](O[C@H]2[C@@H](O)C[C@H](O[C@H]3[C@@H](O)C[C@H](O[C@H]4CC[C@@]5(C)[C@H](CC[C@@H]6[C@@H]5C[C@@H](O)[C@]5(C)[C@@H](C7=CC(=O)OC7)CC[C@]65O)C4)O[C@@H]3C)O[C@@H]2C)C[C@H](O)[C@@H]1O [digoxin, reference compound]

EC50 (Cryptosporidium parvum; Cryptosporidium parvum, HCT-8, in vitro, read-out: C. parvum EC50): 2.7 µM
P-gp Substrate Classification (P-gp): Negative
solubility [4]: > 100 µM
recovery at 120 min, 5 µM ([5]; Caco-2 assay, A→B for BKI 1294, read-out: Percent recovery): 62%
Papp A→B at 120 min, 5 µM ([5]; Caco-2, 5 µM, 120 minutes): 12.7 ×10⁻⁶ cm/s
Papp B→A at 120 min, 5 µM ([5]; Caco-2, 5 µM, 120 minutes): 22.6 ×10⁻⁶ cm/s
Compound: CCOc1ccc2cc(-c3nn(CC4CCN(C)CC4)c4ncnc(N)c34)ccc2c1 [BKI1294]
Efficacy in neonatal mouse model of Cryptosporidium infection (Cryptosporidium): efficacious
Reduction of C. parvum levels over the course of the study (C. parvum [1]; hollow fiber model, polarized HCT-8 cells): > 3 orders of magnitude
Reduction in C. parvum level by 24 hours after the final dose, on day 4 (C. parvum [1]; hollow fiber, once per day for 4 days, BKI1294 80 µM, BKI1369 40 µM): > 6 log
C. parvum reduction in mouse model of cryptosporidiosis (C. parvum [6]): > 2 log

Papp A→B at 120 min, 5 µM ([5]; Caco-2, 5 µM, 120 minutes): 23.2 ×10⁻⁶ cm/s
Compound: CC(C)NCC(O)COc1cccc2ccccc12 (stereo not drawn) [Propranolol, reference compound]
